# Data published in patent US20150105252A1, “SUBSTITUTED PYRAZOLES AS HERBICIDES” (E I DU PONT DE NEMOURS AND COMPANY, priority 2013, published 2015).
# What was measured:
# foxtail, giant = assay: Test A preemergence; assay type: in vivo, Setaria faberii; conditions: preemergence
# Outline: (§1)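 Pre- and postemergence greenhouse test; loam+sand; cpd in non-phytotox. solvent/surfactant; post at 1–2 leaf, 2–10 cm; visual score ~10 d, 0 = none, 100 = complete control.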
# pigweed [1] = assay: Test A postemergence; assay type: in vivo, Amaranthus retroflexus
# Outline: as §1
# corn [2] = assay: Test A postemergence; assay type: in vivo, Zea mays
# Outline: as §1
# rice = assay: Test B flood; assay type: in vivo, Oryza sativa; conditions: 250 g ai/ha, visual rating on 0 to 100 scale (0 no effect, 100 complete control), 13 to 15 days
# Outline: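 Flooded-pot test: compound dosed into 3 cm of standing water above soil when plants had two leaves. Visual control ratings (0–100) versus untreated plants after 13–15 d.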
# galium = assay: Test C preemergence; assay type: in vivo, Galium aparine; conditions: for Plant response rating (scale of 0 to 100), Galium: Preemergence; for Galium plant response rating / Plant response rating, Galium: preemergence; for Plant response rating, Galium: scale 0 to 100, 0 = no effect, 100 = complete control
# Outline: (§2)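 Seeds sown in loam–sand blend and treated preemergence with test chemicals in non-phytotoxic solvent with surfactant; postemergence plants in peat-based medium, treated at 2–18 cm (1- to 4-leaf stage). Greenhouse 13 to 15 days, then visual rating versus controls, 0 (no effect) to 100 (complete control).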
# corn [3] = assay: Test C preemergence; assay type: in vivo, Zea mays; conditions: for Plant response rating (scale of 0 to 100), Corn: Preemergence; for Corn plant response rating / Plant response rating, Corn: preemergence; for Plant response rating, Corn: scale 0 to 100, 0 = no effect, 100 = complete control
# Outline: as §2
# ragweed [4] = assay: Test C preemergence; assay type: in vivo, Ambrosia elation; conditions: for Plant response rating (scale of 0 to 100), Ragweed: Preemergence; for Ragweed plant response rating / Plant response rating, Ragweed: preemergence; for Plant response rating, Ragweed: scale 0 to 100, 0 = no effect, 100 = complete control
# Outline: as §2
# blackgrass = assay: Test C postemergence; assay type: in vivo, Alopecurus myosuroides; conditions: for Plant response rating (scale of 0 to 100 where 0 is no effect and 100 is complete control), Blackgrass: Postemergence, 31 g ai/ha, visually evaluated after 13 to 15 days; for Blackgrass plant response rating / Plant response rating, Blackgrass: postemergence; for Blackgrass plant response rating: 62 g ai/ha, scale 0 to 100
# Source text: (§3) Seeds of plant species selected from blackgrass (Alopecurus myosuroides), ryegrass, Italian (Italian ryegrass, Lolium multiflorum), wheat (winter wheat, Triticum aestivum), galium (catchweed bedstraw, Galium aparine), corn (Zea mays), crabgrass, large (large crabgrass, Digitaria sanguinalis), foxtail, giant (giant foxtail, Setaria faberii), johnsongrass (Sorghum halepense), lambsquarters (Chenopodium album), morningglory (Ipomoea coccinea), nutsedge, yellow (yellow nutsedge, Cyperus esculentus), pigweed (redroot pigweed, Amaranthus retroflexus), ragweed (common ragweed, Ambrosia elation), soybean (Glycine max), barnyardgrass (Echinochloa crus-galli), oilseed rape (Brassica napus), waterhemp (common waterhemp, Amaranthus rudis), oat, wild (wild oat, Avena fatua), kochia (Kochia scoparia), Surinam grass (Brachiaria decumbens), foxtail, green (green foxtail, Setaria viridis), goosegrass (Eleusine indica), bromegrass, downy (downy bromegrass, Bromus tectorum), nightshade (eastern black nightshade, Solanum ptycanthum), cocklebur (common cocklebur, Xanthium strumarium), cupgrass, woolly (woolly cupgrass, Eriochloa villosa), bermudagrass (Cynodon dactylon), sunflower, (common oilseed sunflower, Helianthus annuus), Russian thistle (Salsola kali), and velvetleaf (Abutilon theophrasti) were planted into a blend of loam soil and sand and treated preemergence with test chemicals formulated in a non-phytotoxic solvent mixture which included a surfactant.
# (§4) At the same time, plants selected from these crop and weed species and also chickweed (common chickweed, Stellaria media), canarygrass (littleseed canarygrass, Phalaris minor), and deadnettle (henbit deadnettle, Lamium amplexicaule), were planted in pots containing Redi-Earth® planting medium (Scotts Company, 14111 Scottslawn Road, Marysville, Ohio 43041) comprising spaghnum peat moss, vermiculite, wetting agent and starter nutrients and treated with postemergence applications of test chemicals formulated in the same manner. Plants ranged in height from 2 to 18 cm (1- to 4-leaf stage) for postemergence treatments. Treated plants and controls were maintained in a greenhouse for 13 to 15 days, after which time all species were compared to controls and visually evaluated. Plant response ratings, summarized in Table C, are based on a scale of 0 to 100 where 0 is no effect and 100 is complete control. A dash (-) response means no test result.
# nutsedge, yellow = assay: Test C postemergence; assay type: in vivo, Cyperus esculentus; conditions: for Plant response rating (scale of 0 to 100 where 0 is no effect and 100 is complete control), Nutsedge, Yellow: Postemergence, 31 g ai/ha, visually evaluated after 13 to 15 days; for Nutsedge, Yellow plant response rating / Plant response rating, Nutsedge, Yellow: postemergence; for Nutsedge, Yellow plant response rating: 62 g ai/ha, scale 0 to 100
# Source text: as §3, §4
# pigweed [5] = assay: Test C postemergence; assay type: in vivo, Amaranthus retroflexus; conditions: for Plant response rating (scale of 0 to 100 where 0 is no effect and 100 is complete control), Pigweed: Postemergence, 31 g ai/ha, visually evaluated after 13 to 15 days; for Pigweed plant response rating / Plant response rating, Pigweed: postemergence; for Pigweed plant response rating: 62 g ai/ha, scale 0 to 100
# Source text: as §3, §4
# ragweed [6] = assay: Test C postemergence; assay type: in vivo, Ambrosia elation; conditions: for Plant response rating (scale of 0 to 100 where 0 is no effect and 100 is complete control), Ragweed: Postemergence, 31 g ai/ha, visually evaluated after 13 to 15 days; for Ragweed plant response rating / Plant response rating, Ragweed: postemergence; for Ragweed plant response rating: 62 g ai/ha, scale 0 to 100
# Source text: as §3, §4
# [7] = 125 g ai/ha, visual injury, 0 to 100 scale, approx. 10 days
# [8] = 500 g ai/ha, visual injury after approx. 10 days, 0 to 100 scale (0 no effect, 100 complete control)
# [9] = Postemergence, 500 g ai/ha, 0 to 100 scale (0 no effect, 100 complete control)
# [10] = postemergence, 125 g ai/ha, about 10 days, visual rating on 0 to 100 scale (0 no effect, 100 complete control)
# [11] = 31 g ai/ha, visual rating, scale 0 to 100 (0 no effect, 100 complete control), 13 to 15 days
# [12] = 62 g ai/ha, scale 0 to 100 (0 no effect, 100 complete control), 13 to 15 days
# [13] = 250 g ai/ha, scale 0 to 100 (0 no effect, 100 complete control)
# [14] = 125 g ai/ha, scale 0 to 100, 0 no effect, 100 complete control
# [15] = 125 g ai/ha, scale 0 to 100, 0 is no effect, 100 is complete control
# [16] = 250 g ai/ha, scale 0 to 100, 0 is no effect, 100 is complete control
Compound,"Foxtail, Giant plant response rating (foxtail, giant; [7])","Foxtail, Giant plant response rating (foxtail, giant; [8])",Pigweed plant response rating (pigweed [1]; [9]),Pigweed plant response rating (pigweed [1]; [10]),Corn plant response rating (corn [2]; [9]),Corn plant response rating (corn [2]; [10]),"Plant response rating, Rice (rice)",Galium plant response rating (galium; [11]),Galium plant response rating (galium; [12]),Corn plant response rating (corn [3]; [11]),Corn plant response rating (corn [3]; [12]),Ragweed plant response rating (ragweed [4]; [11]),Ragweed plant response rating (ragweed [4]; [12]),"Plant response rating (scale of 0 to 100 where 0 is no effect and 100 is complete control), Blackgrass (blackgrass)",Blackgrass plant response rating (blackgrass),"Plant response rating, Blackgrass (blackgrass; [13])","Plant response rating, Blackgrass (blackgrass; [14])","Plant response rating (scale of 0 to 100 where 0 is no effect and 100 is complete control), Nutsedge, Yellow (nutsedge, yellow)","Nutsedge, Yellow plant response rating (nutsedge, yellow)","Plant response rating, Nutsedge, Yellow (nutsedge, yellow; [13])",further results
CCCc1cc(C(=O)NCC(F)(F)F)nn1Cc1ccnc(OC(F)F)c1 [Compound 127],90,100,90,90,90,90,20,80,100,5,25,15,25,20,15,40,10,5,5,25,"Plant response rating (scale of 0 to 100), Galium (galium; 250 g ai/ha): 100; Plant response rating, Galium (galium; 125 g ai/ha, 13 to 15 days): 100; Plant response rating (scale of 0 to 100), Corn (corn [3]; 250 g ai/ha): 45; Plant response rating, Corn (corn [3]; 125 g ai/ha, 13 to 15 days): 65; Plant response rating (scale of 0 to 100), Ragweed (ragweed [4]; 250 g ai/ha): 90; Plant response rating, Ragweed (ragweed [4]; 125 g ai/ha, 13 to 15 days): 60; Plant response rating, Nutsedge, Yellow (nutsedge, yellow; [14]): 15; Plant response rating (scale of 0 to 100 where 0 is no effect and 100 is complete control), Pigweed (pigweed [5]): 35; Pigweed plant response rating (pigweed [5]): 70; Plant response rating, Pigweed (pigweed [5]; [13]): 85; Plant response rating, Pigweed (pigweed [5]; [14]): 75; Plant response rating (scale of 0 to 100 where 0 is no effect and 100 is complete control), Ragweed (ragweed [6]): 30; Ragweed plant response rating (ragweed [6]): 20; Plant response rating, Ragweed (ragweed [6]; [13]): 60; Plant response rating, Ragweed (ragweed [6]; [14]): 50"
CCc1cc(C(=O)NOC(C)C)nn1Cc1ccnc(OC(F)F)c1 [Compound 126],100,100,90,90,90,90,20,85,98,25,65,70,100,5,5,25,20,5,5,15,"Plant response rating (scale of 0 to 100), Galium (galium; 250 g ai/ha): 100; Galium plant response rating (galium; [15]): 100; Plant response rating (scale of 0 to 100), Corn (corn [3]; 250 g ai/ha): 98; Corn plant response rating (corn [3]; [15]): 90; Plant response rating (scale of 0 to 100), Ragweed (ragweed [4]; 250 g ai/ha): 90; Ragweed plant response rating (ragweed [4]; [15]): 100; Plant response rating, Nutsedge, Yellow (nutsedge, yellow; [14]): 5; Plant response rating (scale of 0 to 100 where 0 is no effect and 100 is complete control), Pigweed (pigweed [5]): 25; Pigweed plant response rating (pigweed [5]): 50; Plant response rating, Pigweed (pigweed [5]; [13]): 65; Plant response rating, Pigweed (pigweed [5]; [14]): 40; Plant response rating (scale of 0 to 100 where 0 is no effect and 100 is complete control), Ragweed (ragweed [6]): 30; Ragweed plant response rating (ragweed [6]): 35; Plant response rating, Ragweed (ragweed [6]; [13]): 80; Plant response rating, Ragweed (ragweed [6]; [14]): 55"
CCCNC(=O)c1cc(OCC)n(Cc2ccnc(OC(F)F)c2)n1 [Compound 136],100,100,100,80,100,60,35,85,100,35,70,45,75,5,10,40,15,5,5,5,"Plant response rating, Galium (galium; 125 g ai/ha, 13 to 15 days): 100; Galium plant response rating (galium; [16]): 100; Plant response rating, Corn (corn [3]; 125 g ai/ha, 13 to 15 days): 60; Corn plant response rating (corn [3]; [16]): 85; Plant response rating, Ragweed (ragweed [4]; 125 g ai/ha, 13 to 15 days): 75; Ragweed plant response rating (ragweed [4]; [16]): 98; Plant response rating, Nutsedge, Yellow (nutsedge, yellow; [14]): 5; Plant response rating (scale of 0 to 100 where 0 is no effect and 100 is complete control), Pigweed (pigweed [5]): 40; Pigweed plant response rating (pigweed [5]): 65; Plant response rating, Pigweed (pigweed [5]; [13]): 80; Plant response rating, Pigweed (pigweed [5]; [14]): 70; Plant response rating (scale of 0 to 100 where 0 is no effect and 100 is complete control), Ragweed (ragweed [6]): 15; Ragweed plant response rating (ragweed [6]): 35; Plant response rating, Ragweed (ragweed [6]; [13]): 70; Plant response rating, Ragweed (ragweed [6]; [14]): 40"
